# Data: patent US6376490B1, “Quinoxalinediones” (Pfizer Inc, priority 1997, dated 2002)
# Where a name gives a salt, the structure may show the parent alone.
# Target: T1, glycine site of the NMDA receptor (Rattus norvegicus, UniProt P35439)
# T1 construct: from tissue; host or cells: rat brain membranes
# Experiment: Displacement of [3H]-L-689,560 from rat brain membranes (NMDA glycine site binding)
# Conditions: [3H]-L-689,560 method, tris-acetate buffer pH 7.4, 90 minutes, read-out: IC50 (nM), binding affinity for the glycine site of the NMDA receptor
# Method: J. Pharm., 104, 74 (1991).
# The binding affinities of a selection of the compounds of the Examples for the glycine site of the NMDA receptor were measured using the [^3H]-L-689,560 method described on page 20 of the description.
row,Compound,IC50
1,Cc1nnc(-c2ccccc2)n1-c1c(Cl)c(Cl)cc2[nH]c(=O)c(=O)[nH]c12 [Example 73],4 nM
2,Cn1ncnc1-c1c(Cl)c(Cl)cc2[nH]c(=O)c(=O)[nH]c12 [Example 20],19 nM

# Tested on: not given
# Experiment: not given
# Conditions: not given
row,Compound,melting point
1,"COCc1nnc(-c2cccnc2)n1-c1c(Cl)c(C)cc2[nH]c(=O)c(=O)[nH]c12 [Example 109, 6-Chloro-7-methyl-5-[5-methoxymethyl-3-(3-pyridyl)-4H-1,2,4-triazol-4-yl]-2,3(1H,4H)-quinoxalinedione]",229 to 231 °C
2,"COCc1nnc(-c2cccnc2)n1-c1c(C)c(Cl)cc2[nH]c(=O)c(=O)[nH]c12 [Example 110, 7-Chloro-6-methyl-5-[5-methoxymethyl-3-(3-pyridyl)-4H-1,2,4-triazol-4-yl]-2,3(1H,4H)-quinoxalinedione]",> 300 °C
3,Cn1ncnc1-c1c(Cl)c(Cl)cc2[nH]c(=O)c(=O)[nH]c12 (hydrate or solvate) [Example 20],> 300 °C
4,"O=C(O)Cn1nnnc1-c1c(Cl)c(Cl)cc2[nH]c(=O)c(=O)[nH]c12 (hydrate or solvate) [Example 8, 6,7-dichloro-5-(1-carboxymethyltetrazol-5-yl)-2,3(1H,4H)-quinoxalinedione]",286 to 287 °C
5,"O=c1[nH]c2cc(Cl)c(Cl)c(-c3ccncc3)c2[nH]c1=O [Example 1, 6,7-Dichloro-5-(4-pyridyl)-2,3(1H,4H)-quinoxalinedione]",> 300 °C
6,"COC(=O)Cn1nnnc1-c1c(Cl)c(Cl)cc2[nH]c(=O)c(=O)[nH]c12 [Example 108, 6,7-Dichloro-5-(1-methoxycarbonylmethyltetrazol-5-yl)-2,3(1H,4H)-quinoxalinedione]",281 to 283 °C
7,Cc1nnc(-c2ccccc2)n1-c1c(Cl)c(Cl)cc2[nH]c(=O)c(=O)[nH]c12 (as salt: HCl) (hydrate or solvate) [Example 73],274 to 276 °C
